# Measurements from PMC11597202, “Novel Thiazole-Fused [4,5-g] or [5,4-g]Quinazolin-8-ones and Their Quinazoline Analogues: Synthesis and Biological Evaluation” (Pharmaceuticals, 2024).
# Key:
# CDK9/CyclinT = target: T1, CDK9/CyclinT (Homo sapiens, UniProt P50750); test: ADP-Glo kinase inhibition assay, CDK9/CyclinT; assay type: biochemical; conditions: percentage of maximum activity of the DMSO control, mean n = 2, 10 µM ATP, read-out: Residual activity CDK9/CyclinT; for remaining activity at 1 µM: 1 μM compound; for remaining activity at 10 µM: 10 μM compound
# T1 construct: host or cells: Sf9 insect cells (baculovirus)
# T1 sequence (P50750 whole entry): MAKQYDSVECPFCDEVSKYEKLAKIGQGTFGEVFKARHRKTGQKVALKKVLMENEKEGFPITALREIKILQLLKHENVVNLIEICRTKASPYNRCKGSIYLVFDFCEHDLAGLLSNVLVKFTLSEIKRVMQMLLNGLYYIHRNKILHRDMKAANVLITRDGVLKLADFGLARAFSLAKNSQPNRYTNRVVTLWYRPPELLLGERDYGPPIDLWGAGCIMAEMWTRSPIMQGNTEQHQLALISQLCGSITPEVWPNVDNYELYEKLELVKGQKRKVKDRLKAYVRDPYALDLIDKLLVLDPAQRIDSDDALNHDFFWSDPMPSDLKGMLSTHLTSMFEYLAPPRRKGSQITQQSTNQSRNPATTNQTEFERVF
# T1 sequence (O60563 whole entry partner): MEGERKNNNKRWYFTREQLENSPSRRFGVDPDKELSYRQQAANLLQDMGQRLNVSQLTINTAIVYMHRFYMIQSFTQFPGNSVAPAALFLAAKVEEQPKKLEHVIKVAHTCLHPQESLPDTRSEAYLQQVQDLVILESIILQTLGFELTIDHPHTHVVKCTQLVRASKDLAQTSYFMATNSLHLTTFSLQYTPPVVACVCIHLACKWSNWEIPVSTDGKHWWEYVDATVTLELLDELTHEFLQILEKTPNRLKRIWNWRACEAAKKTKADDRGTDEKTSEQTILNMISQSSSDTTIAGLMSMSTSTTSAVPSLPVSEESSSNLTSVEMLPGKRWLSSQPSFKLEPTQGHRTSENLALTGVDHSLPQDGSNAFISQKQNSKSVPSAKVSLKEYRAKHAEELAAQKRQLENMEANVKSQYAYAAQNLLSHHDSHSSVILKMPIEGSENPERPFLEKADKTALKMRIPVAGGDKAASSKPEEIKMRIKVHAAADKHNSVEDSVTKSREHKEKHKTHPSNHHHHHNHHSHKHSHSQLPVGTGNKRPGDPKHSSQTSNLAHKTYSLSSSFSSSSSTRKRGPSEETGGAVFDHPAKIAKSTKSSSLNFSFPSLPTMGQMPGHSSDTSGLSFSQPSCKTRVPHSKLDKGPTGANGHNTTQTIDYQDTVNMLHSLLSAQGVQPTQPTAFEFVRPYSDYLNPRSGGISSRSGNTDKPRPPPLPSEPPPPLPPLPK
# Protocol: Kinase enzymatic activities were assayed in 384-well plates using the ADP-Glo^TM assay kit (Promega, Madison, WI, USA) according to the recommendations of the manufacturer. This luminescent ADP detection assay was described by Zegzouti and co-workers and provides a homogeneous and high-throughput screening method to measure kinase activity by quantifying the amount of ADP produced during a kinase reaction. Briefly, the reactions were carried out in a final volume of 6 µL for 30 min at 30 °C in an appropriate kinase buffer (10 mM MgCl2, 1 mM EGTA, 1 mM DTT, 25 mM Tris-HCl pH 7.5, 50 µg/mL heparin), with peptide or protein as substrate in the presence of 10 µM ATP. Peptide substrates were obtained from ProteoGenix (Schiltigheim, France) or Sigma for Histone H1, Poly (L-glutamic acid–L-tyrosine) sodium salt, Casein and MBP. After that, 6 µL of ADP-Glo^TM Kinase Reagent was added to stop the kinase reaction. After an incubation time of 50 min at room temperature (rt), 12 µL of Kinase Detection Reagent was added for one hour at rt. The transmitted signal was measured using the Envision (PerkinElmer, Waltham, MA, USA) microplate luminometer and expressed as Relative Light Units (RLUs). Kinase activities are expressed as percentages of remaining kinase activities detected after treatment with 1 or 10 µM of the tested compounds. The maximum kinase activity was measured in the absence of inhibitor but with an equivalent dose of DMSO (solvent of the tested compounds).
# 3. Kinase inhibition assays
# Kinase enzymatic activities were assayed in 384-well plates using the ADP-GloTM assay kit (Promega, Madison, WI) according to the recommendations of the manufacturer. This luminescent ADP detection assay was described by Zegzouti and co-workers and provides a homogeneous and high-throughput screening method to measure kinase activity by quantifying the amount of ADP produced during a kinase reaction. Briefly, the reactions were carried out in a final volume of 6 µl for 30 min at 30°C in appropriate kinase buffer (10 mM MgCl2, 1 mM EGTA, 1 mM DTT, 25 mM Tris-HCl pH 7.5, 50 µg/mL heparin), with peptide or protein as substrate in the presence of 10 µM ATP. Peptide substrates were obtained from ProteoGenix (Schiltigheim, France) or Sigma for Histone H1, Poly (L-glutamic acid – L-tyrosine) sodium salt, Casein and MBP. After that, 6 µL of ADP-GloTM Kinase Reagent was added to stop the kinase reaction. After an incubation time of 50 min at room temperature (rt), 12 µL of Kinase Detection Reagent was added for 1 h at rt. The transmitted signal was measured using the Envision (PerkinElmer, Waltham, MA) microplate luminometer and expressed in Relative Light Unit (RLU). Kinase activities are expressed in percentages of remaining kinase activities detected after treatment with 1 or 10 µM of the tested compounds. The maximal kinase activity is measured in the absence of inhibitor but with an equivalent dose of DMSO (solvent of the tested compounds).
# Table. Human protein kinases tested in the panel: CDK9, HASPIN, PIM1, GSK3b, CK1ε, JAK3, CLK1 […]
# Protein Kinase Enzyme Description Substrate1
# (Family) (Working concentration)
# CDK9/CyclinT Human, recombinant, expressed by Peptide:
# (CMGC) baculovirus in Sf9 insect cells […]
# CLK1 Human, recombinant, expressed by Peptide: […]
# (CMGC) baculovirus in Sf9 insect cells (57.3µM)
# DYRK1A Human, recombinant, expressed by Peptide: […]
# (CMGC) baculovirus in Sf9 insect cells (10.7µM)
# PIM1 Human proto-oncogene, recombinant, Peptide: […]
# (CAMK) expressed in bacteria (630 µM)
# GSK3 Human, recombinant, expressed by Peptide:
# (CMGC) baculovirus in Sf9 insect cells […]pEDEEE 3
# HASPIN Human, kinase domain, amino acids 470 to Histone H3 peptide (1-21):
# (Other) 798, recombinant, expressed in bacteria […] (8µM)
# CK1ε Human, recombinant, expressed by Peptide: […]pAYSITA 2
# (CK1) baculovirus in Sf9 insect cells (170µM)
# JAK3 Human, recombinant, expressed by Peptide: […]
# (TK) baculovirus in Sf9 insect cells (94µM) […]
# [1] = In vitro cytotoxic assay, MDA-MB-468; assay type: cell-based; conditions: human, MDA-MB-468 cells (breast cancer cell line); read-out: In vitro cytotoxic activity IC50, MBA-MB4-68
# Protocol: Skin normal fibroblastic cells were purchased from Lonza (Basel, Switzerland). […] All culture media were supplemented by 10% of FBS, 1% of penicillin–streptomycin and 2 mM glutamine.
# Chemicals were solubilized in DMSO at a concentration of 10 mM (stock solution) and diluted in culture medium to the desired final concentrations. […] Cells were plated in 96-well plates (4000 cells/well). Twenty-four hours after seeding, the cells were exposed to chemicals. […] Image acquisition and analysis were performed using a Cellomics ArrayScan VTI/HCS Reader (ThermoScientific, Les Ulis, France). The survival percentages were calculated as the percentage of cell number after compound treatment over cell number after DMSO treatment. The relative IC50 values were calculated using the curve fitting XLfit 5.5.0.5 (idbs) integrated in Microsoft Excel as an add-on.
# 4.3.1. Cell culture. Skin normal fibroblastic cells are purchased from Lonza (Basel, Switzerland). Huh7- […]
# from ATCC (American Type Culture Collection). […]
# supplemented by 10% of FBS, 1% of penicillin-streptomycin and 2 mM glutamine.
# 4.3.2. Cytotoxic assay. Chemicals were solubilized in DMSO at a concentration of 10 mM (stock solution) and diluted in culture medium to the desired final concentrations. The dose effect cytotoxic assays (IC50 determination) were performed by increasing the concentrations of each chemical (final well […]
# Cells were plated in 96-well plates
# (4000 cells/well). Twenty-four hours after seeding, cells were exposed to chemicals. After 48h of treatment, cells were washed in PBS and fixed in cooled 90% ethanol/5% acetic acid for 20 min and the […]
# Image acquisition and analysis were performed using a Cellomics ArrayScan VTI/HCS Reader (ThermoScientific). The survival percentages were calculated as the percentage of cell number after compound treatment over cell number after DMSO treatment. The relative IC50 were calculated using the curve fitting XLfit 5.5.0.5 (idbs) integrated in Microsoft Excel as an add-on. The 4 Parameter Logistic Model or Sigmoidal Dose-Response Model describing the sigmoid-shaped response pattern was used (fit = (A+[(B-A)/(1+[(C/x)^D])]) where fit is the response and X is the tested concentration of the compound. The lower asymptote is A (also referred to as the bottom of the curve or lower plateau or the min) and the upper asymptote is B (also referred to as the top of the curve or upper plateau or the max). The slope of the linear part of the curve is described by the factor D. The parameter C is the concentration corresponding to the response midway between A and B. C is called “relative IC50” because it refers to the maximum response obtained by a […]
# The results are represented as the mean ± standard error (SE) calculated from at least three independent experiments.
remaining activity at 1 µM (CDK9/CyclinT),remaining activity at 10 µM (CDK9/CyclinT),Compound,IC50 at 48 h [1]
98%,110%,"COC(=N)c1nc2cc3ncnc(Nc4ccc(OC)cc4F)c3cc2s1 [Compound 15b, Methyl 8-[(2-fluoro-4-methoxyphenyl)amino]thiazolo[5,4-g]quinazoline-2-carbimidate]",
101%,100%,"COC(=N)c1nc2cc3c(Nc4ccc(OC)cc4F)ncnc3cc2s1 [Compound 15a, Methyl 8-[(2-fluoro-4-methoxyphenyl)amino]thiazolo[4,5-g]quinazoline-2-carbimidate]",

# The next lines start with the compound.
Compound,remaining activity at 1 µM (CDK9/CyclinT),remaining activity at 10 µM (CDK9/CyclinT),IC50 at 48 h [1]
"COC(=N)c1nc2ccc3ncn(Cc4ccccc4)c(=O)c3c2s1 [Compound I, methyl 8-benzyl-9-oxo-8,9-dihydrothiazolo[5,4-f]quinazoline-2-carbimidate, reference compound]",91%,41%,21 µM
"COC(=N)c1nc2cc3c(=O)n(Cc4ccccc4)cnc3cc2s1 [Compound 6a, Methyl 7-benzyl-8-oxo-7,8-dihydrothiazolo[4,5-g]quinazoline-2-carbimidate]",103%,101%,19 µM
"COC(=N)c1nc2cc3ncn(Cc4ccccc4)c(=O)c3cc2s1 [Compound 6b, Methyl 7-benzyl-8-oxo-7,8-dihydrothiazolo[5,4-g]quinazoline-2-carbimidate]",107%,104%,1 µM
"COC(=N)c1nc2ccc3ncnc(Nc4ccc(OC)cc4F)c3c2s1 [Compound II, methyl 9-[(2-fluoro-4-methoxyphenyl)amino]thiazolo[5,4-f]quinazoline-2-carbimidate, reference compound]",86%,59%,9 µM
"COC(=N)c1nc2ccc3c(=O)n(Cc4ccccc4)cnc3c2s1 [Compound 6d, Methyl 7-benzyl-6-oxo-6,7-dihydrothiazolo[4,5-h]quinazoline-2-carbimidate]",106%,94%,5 µM
"COC(=N)c1nc2c(ccc3c(=O)n(Cc4ccccc4)cnc32)s1 [Compound 6c, Methyl 7-benzyl-6-oxo-6,7-dihydrothiazolo[5,4-h]quinazoline-2-carbimidate]",105%,101%,13 µM
